Data from publication PMC11671526, “β-caryophyllene sensitizes hepatocellular carcinoma cells to chemotherapeutics and inhibits cell malignancy through targeting MAPK signaling pathway” (Frontiers in Pharmacology, 2024).

Tested on: HepG2 cells
Test: RNA-seq transcriptome analysis of differentially expressed genes
Assay type: cell-based, human
Details: BCP vs control HepG2, RNA-seq
Experimental: The quality and concentration of RNA were examined by MOPS RNA electrophoresis and Eppendorf BioSpectrometer. The transcriptome analysis was performed by BGI-Wuhan China. The RNA-seq dataset of this study is accessible in the Gene Expression Omnibus (GEO) with an access number of GSE276099. The sequence library for each sample was prepared using the BGISEQ-500 platform with a 50-bp single-end (SE50) format. […]2.2.1) was used to align the clean reads to the reference genome and alignment of the clean reads to the reference genes was carried out using Bowtie2 (v2.4.5) ([Langmead and Salzberg, 2012]; [Kim et al., 2015]). Gene expression levels were calculated by RSEM (v1.3.1) ([Li and Dewey, 2011]). Analysis of differential gene expression was performed using edgeR in the Bioconductor software package ([Robinson et al., 2010]). Using a standard protocol, the RNA samples were also examined by reverse transcription and quantitative polymerase chain reaction (RT-qPCR). In brief, for reverse transcription, total RNA (1 μg) and gDNA wiper Mix were incubated at 42°C for 2 min. The samples were immediately incubated with a master mix containing 10 pmol/μL of poly (dT) primers at 37°C for 15 min and 85°C for 5 s. To detect the expression of specific genes by qPCR analysis, gene-specific primers (shown in Supplementary Table S1) were mixed with the ChamQ Universal SYBER qPCR Master Mix and the reaction was conducted using the Roche Lightcycler 480. The GAPDH value was used to normalize the results of each gene. The RNA-seq data of BCP-treated HepG2 cells were screened for DEGs. Gene symbols were turned into Enterz ID using the org.Hs.eg.db Bio-conductor R package. The cluster profiler (v4.6.2) package was used to perform the Kyoto Encyclopedia of Genes and Genomes (KEGG) and Gene Ontology (GO) enrichment analyses ([Wu et al., 2021]). Following the Transcript per million (TPM) data of the dataset, the line chart, and heatmap were plotted using ggplot2 and pheatmap R packages, respectively.

For `C=C1CC/C=C(\C)CC[C@@H]2[C@@H]1CC2(C)C` [BCP, β-caryophyllene], which ODAD2 change is on record?
Its ODAD2 change is “Up”.

What about the “ODAD2 logFC” value of the same molecule?
Its value is 0.6018.

What about the PADI1 change of the same molecule?
Its PADI1 change is “Down”.

And the “PADI1 logFC” value?
Its value is -0.911.

What about the PAN2 change of the same molecule?
The PAN2 change was “Up”.

And the “PAN2 logFC” value?
Its value is 0.6394.

What about the PAPLN change of the same molecule?
Its PAPLN change is “Up”.

And the “PAPLN logFC” value?
The value was 0.648.

What about the PARP10 change of the same molecule?
Its PARP10 change is “Up”.

What about the “PARP10 logFC” value of the same molecule?
The value was 0.961.

What about the PDZK1IP1 change of the same molecule?
The PDZK1IP1 change was “Up”.

And the “PDZK1IP1 logFC” value?
The value was 0.6396.

What about the PERM1 change of the same molecule?
Its PERM1 change is “Up”.

And the “PERM1 logFC” value?
Its value is 0.9379.

And the PGF change?
Its PGF change is “Down”.

And the “PGF logFC” value?
The value was -1.184.

And the PGGHG change?
The PGGHG change was “Up”.

What about the “PGGHG logFC” value of the same molecule?
Its value is 0.7209.

What about the PID1 change of the same molecule?
The PID1 change was “Down”.

And the “PID1 logFC” value?
Its value is -0.6654.

What about the PLCD4 change of the same molecule?
The PLCD4 change was “Down”.

What about the “PLCD4 logFC” value of the same molecule?
The value was -1.595.

And the PLCH1 change?
Its PLCH1 change is “Up”.

What about the “PLCH1 logFC” value of the same molecule?
The value was 1.418.

What about the PLEKHF1 change of the same molecule?
The PLEKHF1 change was “Up”.

What about the “PLEKHF1 logFC” value of the same molecule?
Its value is 0.8594.

What about the PLEKHN1 change of the same molecule?
Its PLEKHN1 change is “Up”.

What about the “PLEKHN1 logFC” value of the same molecule?
The value was 0.6105.

What about the POU2F3 change of the same molecule?
The POU2F3 change was “Down”.

And the “POU2F3 logFC” value?
The value was -1.5108.

What about the PRDM12 change of the same molecule?
The PRDM12 change was “Down”.

And the “PRDM12 logFC” value?
The value was -1.2196.

And the PRIMPOL change?
Its PRIMPOL change is “Up”.

What about the “PRIMPOL logFC” value of the same molecule?
The value was 0.639.

What about the PROB1 change of the same molecule?
The PROB1 change was “Down”.

What about the “PROB1 logFC” value of the same molecule?
Its value is -0.6611.

What about the PRSS56 change of the same molecule?
Its PRSS56 change is “Up”.

What about the “PRSS56 logFC” value of the same molecule?
Its value is 0.9346.

And the PTP4A3 change?
Its PTP4A3 change is “Up”.

And the “PTP4A3 logFC” value?
The value was 0.9798.

What about the PTPRR change of the same molecule?
The PTPRR change was “Up”.

What about the “PTPRR logFC” value of the same molecule?
The value was 1.308.

What about the RAET1E change of the same molecule?
Its RAET1E change is “Down”.

And the “RAET1E logFC” value?
The value was -0.794.

What about the RAET1L change of the same molecule?
Its RAET1L change is “Down”.

What about the “RAET1L logFC” value of the same molecule?
Its value is -0.9044.

What about the RASD2 change of the same molecule?
The RASD2 change was “Down”.

What about the “RASD2 logFC” value of the same molecule?
Its value is -0.5906.

What about the RASL11A change of the same molecule?
Its RASL11A change is “Down”.

And the “RASL11A logFC” value?
Its value is -0.8207.

What about the RHBDL3 change of the same molecule?
Its RHBDL3 change is “Down”.

And the “RHBDL3 logFC” value?
The value was -0.6105.

What about the S1PR1 change of the same molecule?
The S1PR1 change was “Down”.

And the “S1PR1 logFC” value?
The value was -1.034.

And the SH2D5 change?
Its SH2D5 change is “Up”.

And the “SH2D5 logFC” value?
The value was 0.5827.

And the SHC3 change?
Its SHC3 change is “Down”.

What about the “SHC3 logFC” value of the same molecule?
Its value is -0.7485.

What about the SLC4A11 change of the same molecule?
Its SLC4A11 change is “Down”.

And the “SLC4A11 logFC” value?
The value was -0.655.

What about the SLC6A12 change of the same molecule?
The SLC6A12 change was “Down”.

What about the “SLC6A12 logFC” value of the same molecule?
Its value is -3.144.

And the SLC6A16 change?
Its SLC6A16 change is “Down”.

What about the “SLC6A16 logFC” value of the same molecule?
Its value is -0.7923.

And the SLC12A3 change?
The SLC12A3 change was “Down”.

And the “SLC12A3 logFC” value?
Its value is -0.7354.

What about the SLC25A41 change of the same molecule?
The SLC25A41 change was “Down”.

What about the “SLC25A41 logFC” value of the same molecule?
Its value is -0.9215.

What about the SMC1B change of the same molecule?
Its SMC1B change is “Up”.

What about the “SMC1B logFC” value of the same molecule?
The value was 1.162.

And the SMPDL3A change?
The SMPDL3A change was “Down”.

And the “SMPDL3A logFC” value?
The value was -0.7314.

And the SORBS1 change?
The SORBS1 change was “Up”.

And the “SORBS1 logFC” value?
Its value is 0.6679.

What about the SP6 change of the same molecule?
The SP6 change was “Down”.

What about the “SP6 logFC” value of the same molecule?
Its value is -0.8849.

What about the ST3GAL5 change of the same molecule?
The ST3GAL5 change was “Down”.

What about the “ST3GAL5 logFC” value of the same molecule?
Its value is -0.6552.

What about the STAC change of the same molecule?
Its STAC change is “Down”.

What about the “STAC logFC” value of the same molecule?
Its value is -0.9497.

What about the STXBP6 change of the same molecule?
The STXBP6 change was “Down”.

And the “STXBP6 logFC” value?
The value was -0.6612.

What about the SYTL4 change of the same molecule?
Its SYTL4 change is “Down”.

What about the “SYTL4 logFC” value of the same molecule?
Its value is -1.384.

And the TCF7 change?
Its TCF7 change is “Up”.

What about the “TCF7 logFC” value of the same molecule?
Its value is 0.7392.

And the TESPA1 change?
Its TESPA1 change is “Down”.

And the “TESPA1 logFC” value?
Its value is -0.7534.

And the TEX9 change?
Its TEX9 change is “Up”.

And the “TEX9 logFC” value?
Its value is 0.7307.

And the TGFA change?
The TGFA change was “Down”.

What about the “TGFA logFC” value of the same molecule?
The value was -0.6404.

What about the THRB change of the same molecule?
The THRB change was “Down”.

What about the “THRB logFC” value of the same molecule?
The value was -0.6974.

And the TIAF1 change?
The TIAF1 change was “Down”.

And the “TIAF1 logFC” value?
The value was -0.9875.

What about the TLN2 change of the same molecule?
The TLN2 change was “Up”.

And the “TLN2 logFC” value?
The value was 0.6813.

What about the TMEM17 change of the same molecule?
The TMEM17 change was “Up”.

What about the “TMEM17 logFC” value of the same molecule?
The value was 0.6031.

What about the TMEM121 change of the same molecule?
The TMEM121 change was “Down”.

And the “TMEM121 logFC” value?
Its value is -0.7343.

And the TMEM158 change?
Its TMEM158 change is “Down”.

And the “TMEM158 logFC” value?
Its value is -0.7403.

And the TMEM213 change?
The TMEM213 change was “Down”.

And the “TMEM213 logFC” value?
Its value is -1.017.

What about the TMIE change of the same molecule?
Its TMIE change is “Up”.

What about the “TMIE logFC” value of the same molecule?
Its value is 1.064.

What about the TMPPE change of the same molecule?
Its TMPPE change is “Down”.

What about the “TMPPE logFC” value of the same molecule?
The value was -0.812.

And the TNFRSF14 change?
Its TNFRSF14 change is “Up”.

What about the “TNFRSF14 logFC” value of the same molecule?
The value was 1.214.

What about the TOX change of the same molecule?
Its TOX change is “Up”.

And the “TOX logFC” value?
The value was 0.9011.

And the TRABD2B change?
The TRABD2B change was “Up”.

What about the “TRABD2B logFC” value of the same molecule?
The value was 0.6053.

What about the TSHZ2 change of the same molecule?
The TSHZ2 change was “Up”.
